Drawing on the METLIN SMRT retention time set (Domingo-Almenara et al. 2019), this text covers RP-LC retention time for 61 molecules.

Structures are written as SMILES.

This data set is described as follows: gradient 5% acetonitrile 3 min, to 50% in 2 min, to 85% in 15 min, held 3 min, 100 µL/min. Conditions: column: Zorbax Extend-C18 2.1 x 50 mm; eluents: water / acetonitrile, 0.1% formic acid. The method, boiled down:
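Values are retention times taken from adduct peaks that software picked and an analyst inspected. The pure standards were run as mixtures of ~100 molecules on HPLC linked to a quadrupole time-of-flight mass spectrometer, in positive and negative ionization mode. A Zorbax Extend-C18 column (2.1 × 50 mm, 1.8 μm) was used at 100 μL/min with water and acetonitrile, each including 0.1% formic acid.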
The molecule `Cc1csc(-c2ccc(N3CCN(C(=O)c4ccsc4)CC3)nc2)n1` had an RP-LC retention time of 762 s.
In turn, `O=C(Nc1cccc(Cl)c1)C1CCN(C(=O)C2Sc3ccccc3NC2=O)CC1` (stereo unspecified) displayed an RP-LC retention time of 837 s.
The result for `O=C(Nc1cccnc1)C1CCN(S(=O)(=O)c2cc(-c3noc(C4CCC4)n3)cs2)CC1` reads 762 s.
The result for `COc1ccc(CNC(=O)Cn2c(C)nc3onc(C)c3c2=O)cc1` reads 711 s; that for `COc1ccc(Cl)cc1NC(=O)Cn1ccc2ccc(-c3nnc(C)o3)cc21`, 898 s.
In turn, `O=C(O)c1ccc(S(=O)(=O)N2CCc3ccccc3C2)cc1` showed an RP-LC retention time of 773 s.
The result for `CCS(=O)(=O)N1CCCc2cc(C(=O)NCCOC)ccc21` reads 682 s; that for `O=C(CCc1c(-c2ccc(Cl)cc2)nc2ccccn12)NCc1ccccc1F`, 688 s.
Take `CC1CCCCN1S(=O)(=O)c1ccc(C(=O)Nc2nc3c(s2)CCc2ccccc2-3)cc1` (stereo unspecified): the RP-LC retention time stood at 1270 s.
As for `CCOC(=O)c1nc(Nc2cc(Cl)ccc2C)c2ccccc2n1`, the figure is 929 s; as for `O=C(c1cccs1)N1CCC2(CC1)N=C(c1ccc(Cl)cc1)NO2`, 844 s.
Regarding `Cc1ccc2[nH]c(=O)c(CCC(=O)NCCCN3CCc4ccccc4C3)cc2c1`, the RP-LC retention time was found to be 629 s.
Take `Cc1nn(-c2ccc(-c3ccccc3)nn2)c(C)c1S(=O)(=O)N1CCC(C)CC1`: the RP-LC retention time was 1160 s.
`CCC(C)NC(=O)Cn1nc2cc(C)nc(-c3ccc(C(F)(F)F)cc3)n2c1=O` (stereo unspecified) gave an RP-LC retention time of 661 s.
For the molecule `Cc1cccc(N2CCN(C(=O)C3CCN(C(=O)C4Sc5ccccc5NC4=O)CC3)CC2C)c1` (stereo unspecified), the RP-LC retention time turned out to be 725 s.
Take `COc1cc(OC)cc(N2C(=O)c3cc(C)nn3CC2(C)C(=O)NCc2ccc(F)cc2)c1` (stereo unspecified): the RP-LC retention time came out at 829 s.
Molecule `CC(C)CNC(=O)N1CCCCC1c1nncn1-c1ccccc1` (stereo unspecified) displayed an RP-LC retention time of 683 s.
`O=C(Nc1ccc2nnc(-c3ccc(C(=O)N4CCSCC4)cc3)n2c1)C1CCC1` displayed an RP-LC retention time of 885 s.
`CCOC(=O)N1CCN(Cc2nc(-c3ccc(N4CCCC4)nc3)no2)CC1` gave an RP-LC retention time of 604 s.
As for `Cc1ccc(NC(=O)Cn2nc(N3CCSCC3)c3ccccc3c2=O)cc1`, the figure is 1170 s; as for `O=C(Cc1nnc(-c2ccsc2)o1)N1CCc2ccccc2C1`, 780 s.
As for `Cc1nc2c(NC(=O)NCc3ccccc3)cccn2n1`, the figure is 707 s.
`Cc1ccc(-c2ncc(NC(=O)c3cccs3)cn2)cc1`: the RP-LC retention time was 982 s.
As for `Cn1cc(CCN2CCC(C(=O)NCC3CCCCC3)CC2)c2cccnc21`, the figure is 619 s; as for `O=C(c1cccs1)N1CCN(c2nnc3ccccn23)CC1`, 608 s.
`CCOCc1nc(C2CCCN(C(=O)NC(C)C)C2)no1` (stereo unspecified) registered an RP-LC retention time of 704 s.
`COc1ccc(NC(=O)N2CCC3(C2)C(=O)N(C)c2ccccc23)cc1F` (stereo unspecified) showed an RP-LC retention time of 785 s.
The result for `O=C(NCc1ccco1)c1ccc(-c2noc(C3CC3)n2)cc1` reads 839 s.
For `COc1cc(NC(=O)C2CC(=O)N(CCc3c[nH]c4ccc(F)cc34)C2)cc(OC)c1OC` (stereo unspecified), the RP-LC retention time stood at 744 s.
As to `O=C1NC(C(=O)NCC2CC2)Cn2cccc21` (stereo unspecified), the RP-LC retention time turned out to be 602 s.
The result for `O=C(NC1CCCC1)c1ccc2c(c1)nc1n2CCN(C2CCCCC2)C1=O` reads 763 s; that for `COc1ccccc1CNC(=O)C1CCN(c2ccc(SCc3ccccc3)nn2)CC1`, 778 s.
For the molecule `CCNC(=O)N1CC=C(C(=O)Nc2ccc(F)cc2)CC1`, the RP-LC retention time worked out at 672 s.
Take `CCOc1ccccc1NC(=O)C1CCN(c2cncnc2N2CCOCC2)CC1`: the RP-LC retention time was 651 s.
Regarding `Cc1ccc(Cn2cc(-c3ccncc3)cc2C(=O)NC(C)c2ccccn2)cc1` (stereo unspecified), the RP-LC retention time stood at 620 s.
The molecule `O=C(NC1CCCCC1)C1CCCN(c2ccncc2)C1` (stereo unspecified) returned an RP-LC retention time of 604 s.
In turn, `CCCCN1C(=O)C(C)(C(=O)Nc2cccc(F)c2)Oc2cccnc21` (stereo unspecified) came in with an RP-LC retention time of 924 s.
`O=C(NCC1CCCO1)N1CC(c2nc(CCOCc3ccccc3)no2)C1` (stereo unspecified): the RP-LC retention time stood at 713 s.
`Cc1ccccc1CNC(=O)Cc1csc2nc(-c3ccccc3)cn12` displayed an RP-LC retention time of 792 s.
As for `c1ccc(-c2noc(N3CCCCC3)n2)cc1`, the figure is 1070 s; as for `CN(C)c1ccc(-c2nc3cnccn3c2Nc2ccc(Br)cc2)cc1`, 894 s.
In turn, `Cc1ccc2nc(NC3=NCN(Cc4cccnc4)CN3)nc(C)c2c1` yielded an RP-LC retention time of 587 s.
As to `Cn1c(=O)n([C@H]2CCN(C(=O)C3CC3)C2)c2ncccc21`, the RP-LC retention time amounted to 639 s.
The result for `CCN1C(=O)c2cccnc2Sc2cc(NC(=O)C(C)C)ccc21` reads 711 s; that for `CCOc1ccc(-c2nc(-c3ccc4c(c3)ncn4CCC(=O)N3CCCC3)no2)cc1`, 825 s; that for `CC1(C(=O)NCc2ccc(F)cc2)CCCN(C(=O)Nc2ccc(Br)cc2F)C1` (stereo unspecified), 1030 s.
In the case of `CCOC(=O)Cn1cccc(S(=O)(=O)N2CCCCCC2)c1=O`, the RP-LC retention time stood at 831 s.
As to `CCn1c(=O)c(C)nc2cc(-c3noc(-c4ccc(C)cc4)n3)ccc21`, the RP-LC retention time is 1200 s.
Molecule `O=C(c1ccco1)N1CCC(Cc2noc(C3CC3)n2)C1` (stereo unspecified) came in with an RP-LC retention time of 709 s.
Consider `Cc1ccc(Nc2c(-c3ccc(C)cc3)nc3cnccn23)cc1`, for which the RP-LC retention time worked out at 969 s.
With `Cn1c(=O)n(C)c2cc(N3CCCCC3)c(NC(=O)c3cccs3)cc21`, the RP-LC retention time came to 890 s.
The result for `COc1ccc(-c2csc(CN3CCN(C(=O)C4CC4)CC3)n2)cc1` reads 599 s; that for `COCc1nncn1C1CN(C(=O)Cc2cc(OC)ccc2OC)C1`, 610 s; that for `C#C[C@]1(O)CC[C@H]2[C@@H]3CCC4=CC(=O)CCC4=C3C=C[C@@]21CC`, 1050 s.
Turning to `Cc1ccc(-c2nc(NC(=O)CCCOc3ccc(Cl)cc3)sc2C)cc1`, the RP-LC retention time is 1250 s.
The molecule `O=C1COc2ccccc2N1Cc1nc(-c2ccc3c(c2)ncn3C2CCCC2)no1` showed an RP-LC retention time of 766 s.
As for `CCc1nc(-c2csc(S(=O)(=O)N3CCC(C(=O)Nc4ccc(C)cc4)CC3)c2)no1`, the RP-LC retention time was 1020 s.
As for `CC(C)c1ccc(-c2ccnc3c(C(=O)NCCCc4ccco4)cnn23)cc1`, the figure is 1180 s; as for `CC1=C(c2ccc(C)c(C)c2)S(=O)(=O)N=C1N1CCCN(C(=O)c2ccncc2)CC1`, 692 s.
The result for `Cc1ccc(CNC(=O)C2(C)Cn3nc(C(=O)NC4CCCCC4)cc3C(=O)N2C)cc1` (stereo unspecified) reads 800 s; that for `COc1cccc(CNC(=O)C(=O)NCC2CCN(C(=O)NC(C)(C)C)CC2)c1`, 719 s.
